According to PubChem BioAssay (NCI):
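48-hour exposure; five concentrations; linearly interpolated endpoints. GI50 is the concentration that inhibits growth by half. The concentration for full growth arrest is given as TGI.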

How the values were obtained:
Assay in all cases: NCI anticancer screen, dose series, 48 h
786-0 renal = system: 786-0 renal
A498 renal = system: A498 renal
A549 NSCLC = system: A549 NSCLC
ACHN renal = system: ACHN renal
BT-549 breast = system: BT-549 breast
CAKI-1 renal = system: CAKI-1 renal
CCRF-CEM leukemia = system: CCRF-CEM leukemia
COLO 205 colon = system: COLO 205 colon
DU-145 prostate = system: DU-145 prostate
HCC-2998 colon = system: HCC-2998 colon
HCT-116 colon = system: HCT-116 colon
HCT-15 colon = system: HCT-15 colon
HL-60(TB) leukemia = system: HL-60(TB) leukemia
HOP-62 NSCLC = system: HOP-62 NSCLC
HOP-92 NSCLC = system: HOP-92 NSCLC
HS 578T breast = system: HS 578T breast
HT29 colon = system: HT29 colon
IGROV1 ovarian = system: IGROV1 ovarian
K-562 leukemia = system: K-562 leukemia
KM12 colon = system: KM12 colon
LOX IMVI melanoma = system: LOX IMVI melanoma
M14 melanoma = system: M14 melanoma
MALME-3M melanoma = system: MALME-3M melanoma
MCF7 breast = system: MCF7 breast
MDA-MB-231 breast = system: MDA-MB-231 breast
MDA-MB-435 = system: MDA-MB-435
MOLT-4 leukemia = system: MOLT-4 leukemia
NCI-H226 lung = system: NCI-H226 lung

Q: For `Cc1cc(Nc2cccc(F)c2)nc(NCc2ccccc2)n1`, which GI50 (786-0 renal) is on record?
A: Its GI50 is 6.62 µM.

Q: And the TGI (786-0 renal)?
A: The TGI was 22.1 µM.

Q: And the GI50 (A498 renal)?
A: Its GI50 is 2.75 µM.

Q: And the TGI (A498 renal)?
A: The TGI was 10.7 µM.

Q: What about the GI50 (A549 NSCLC) of the same molecule?
A: Its GI50 is 6.44 µM.

Q: What about the TGI (A549 NSCLC) of the same molecule?
A: Its TGI is 22.8 µM.

Q: What about the GI50 (ACHN renal) of the same molecule?
A: The GI50 was 7.76 µM.

Q: And the TGI (ACHN renal)?
A: Its TGI is 26.1 µM.

Q: What about the GI50 (BT-549 breast) of the same molecule?
A: The GI50 was 7.45 µM.

Q: What about the TGI (BT-549 breast) of the same molecule?
A: Its TGI is 23.2 µM.

Q: And the GI50 (CAKI-1 renal)?
A: The GI50 was 3.94 µM.

Q: What about the TGI (CAKI-1 renal) of the same molecule?
A: Its TGI is 17.8 µM.

Q: What about the GI50 (CCRF-CEM leukemia) of the same molecule?
A: Its GI50 is 4.75 µM.

Q: What about the TGI (CCRF-CEM leukemia) of the same molecule?
A: Its TGI is 22.1 µM.

Q: And the GI50 (COLO 205 colon)?
A: Its GI50 is 1.73 µM.

Q: What about the TGI (COLO 205 colon) of the same molecule?
A: Its TGI is 3.31 µM.

Q: What about the GI50 (DU-145 prostate) of the same molecule?
A: The GI50 was 11.3 µM.

Q: And the TGI (DU-145 prostate)?
A: The TGI was 23.9 µM.

Q: What about the GI50 (HCC-2998 colon) of the same molecule?
A: Its GI50 is 2 µM.

Q: What about the TGI (HCC-2998 colon) of the same molecule?
A: The TGI was 4.19 µM.

Q: What about the GI50 (HCT-116 colon) of the same molecule?
A: The GI50 was 3.34 µM.

Q: What about the TGI (HCT-116 colon) of the same molecule?
A: The TGI was 18.2 µM.

Q: What about the GI50 (HCT-15 colon) of the same molecule?
A: The GI50 was 4.98 µM.

Q: What about the TGI (HCT-15 colon) of the same molecule?
A: The TGI was 24.6 µM.

Q: What about the GI50 (HL-60(TB) leukemia) of the same molecule?
A: Its GI50 is 3.91 µM.

Q: And the TGI (HL-60(TB) leukemia)?
A: Its TGI is 17.2 µM.

Q: What about the GI50 (HOP-62 NSCLC) of the same molecule?
A: Its GI50 is 10.2 µM.

Q: And the TGI (HOP-62 NSCLC)?
A: Its TGI is 23.4 µM.

Q: And the GI50 (HOP-92 NSCLC)?
A: The GI50 was 1.81 µM.

Q: And the TGI (HOP-92 NSCLC)?
A: Its TGI is 11 µM.

Q: What about the GI50 (HS 578T breast) of the same molecule?
A: The GI50 was 7.26 µM.

Q: And the TGI (HS 578T breast)?
A: Its TGI is 32.7 µM.

Q: And the GI50 (HT29 colon)?
A: Its GI50 is 3.7 µM.

Q: What about the TGI (HT29 colon) of the same molecule?
A: Its TGI is 13.4 µM.

Q: And the GI50 (IGROV1 ovarian)?
A: Its GI50 is 5.44 µM.

Q: What about the TGI (IGROV1 ovarian) of the same molecule?
A: Its TGI is 24.6 µM.

Q: What about the GI50 (K-562 leukemia) of the same molecule?
A: Its GI50 is 2.89 µM.

Q: And the TGI (K-562 leukemia)?
A: The TGI was 12.9 µM.

Q: What about the GI50 (KM12 colon) of the same molecule?
A: Its GI50 is 5.46 µM.

Q: And the TGI (KM12 colon)?
A: The TGI was 19.7 µM.

Q: What about the GI50 (LOX IMVI melanoma) of the same molecule?
A: Its GI50 is 7.12 µM.

Q: What about the TGI (LOX IMVI melanoma) of the same molecule?
A: Its TGI is 28.7 µM.

Q: What about the GI50 (M14 melanoma) of the same molecule?
A: The GI50 was 13.3 µM.

Q: What about the TGI (M14 melanoma) of the same molecule?
A: Its TGI is 30.8 µM.

Q: What about the GI50 (MALME-3M melanoma) of the same molecule?
A: Its GI50 is 3.8 µM.

Q: And the TGI (MALME-3M melanoma)?
A: Its TGI is 17.7 µM.

Q: And the GI50 (MCF7 breast)?
A: Its GI50 is 3.14 µM.

Q: What about the TGI (MCF7 breast) of the same molecule?
A: Its TGI is 15.7 µM.

Q: What about the GI50 (MDA-MB-231 breast) of the same molecule?
A: Its GI50 is 3.28 µM.

Q: And the TGI (MDA-MB-231 breast)?
A: Its TGI is 14.1 µM.

Q: What about the GI50 (MDA-MB-435) of the same molecule?
A: The GI50 was 5.72 µM.

Q: And the TGI (MDA-MB-435)?
A: Its TGI is 20 µM.

Q: And the GI50 (MOLT-4 leukemia)?
A: The GI50 was 4.89 µM.

Q: What about the TGI (MOLT-4 leukemia) of the same molecule?
A: The TGI was 19.8 µM.

Q: What about the GI50 (NCI-H226 lung) of the same molecule?
A: The GI50 was 11.8 µM.

Q: And the TGI (NCI-H226 lung)?
A: Its TGI is 35.2 µM.
